Experiments:
CRE (E. coli) = assay: Nanoplatelet composition vs antibiotic parallel test, CRE E. coli; assay type: cell-based; settings: within 24 hours; colistin 2 μg/mL; FIG. 8
S. aureus (VISA) = assay: Nanoplatelet composition vs antibiotic parallel test, VISA; assay type: cell-based
B. cereus (ATCC 14579) = assay: Nanoplatelet composition vs antibiotic parallel test, B. cereus; assay type: cell-based
CRE (K. pneumoniae) = assay: Nanoplatelet composition vs antibiotic parallel test, CRE K. pneumoniae; assay type: cell-based
MRSA (S. aureus) = assay: Nanoplatelet composition vs antibiotic parallel test, MRSA; assay type: cell-based, Staphylococcus aureus
Protocol: The nanoplatelet composition achieved total mitigation of MRSA from a 7 log pathogen population (10 million bacteria per mL) to zero in 3 hours. Levoflaxin, a commonly administered antibiotic used for treating MRSA, was tested at clinical doses and is shown as the dashed line. At various concentrations, the nanoplatelet composition eliminated MRSA more completely than levoflaxin after 24 hours with no rebound.

Colistin
rebound of bacteria population (CRE (E. coli)): completely rebounded

CC(=O)NC[C@H]1CN(c2ccc(N3CCOCC3)c(F)c2)C(=O)O1 [Linezolid]
Log Kill (S. aureus (VISA)): 0.5 Log

O=C(O)c1cn(C2CC2)c2cc(N3CCNCC3)c(F)cc2c1=O [Cyproflaxin]
Log Kill (B. cereus (ATCC 14579)): 0.5 Log

CN(C)c1cc(NC(=O)CNC(C)(C)C)c(O)c2c1C[C@H]1C[C@H]3[C@H](N(C)C)C(O)=C(C(N)=O)C(=O)[C@@]3(O)C(O)=C1C2=O [Tigecycline]
Log Kill (CRE (K. pneumoniae)): 8 Log | Time to Zero (CRE (K. pneumoniae)): 24 h

C[C@H]1COc2c(N3CCN(C)CC3)c(F)cc3c(=O)c(C(=O)O)cn1c23 [Levoflaxin]
Log Kill (MRSA (S. aureus)): 4.5 Log

From patent US20250302051A1, “COMPOSITIONS WITH NANOPLATELET OXIDES OR HYDROXIDES AND METHODS OF PREPARING AND USING SAME” (Aqua Resources Corporation, priority 2024, published 2025)
